pIC50: −log10 of the molar value.

CCR2, sequence (P41597 whole entry, species assumed): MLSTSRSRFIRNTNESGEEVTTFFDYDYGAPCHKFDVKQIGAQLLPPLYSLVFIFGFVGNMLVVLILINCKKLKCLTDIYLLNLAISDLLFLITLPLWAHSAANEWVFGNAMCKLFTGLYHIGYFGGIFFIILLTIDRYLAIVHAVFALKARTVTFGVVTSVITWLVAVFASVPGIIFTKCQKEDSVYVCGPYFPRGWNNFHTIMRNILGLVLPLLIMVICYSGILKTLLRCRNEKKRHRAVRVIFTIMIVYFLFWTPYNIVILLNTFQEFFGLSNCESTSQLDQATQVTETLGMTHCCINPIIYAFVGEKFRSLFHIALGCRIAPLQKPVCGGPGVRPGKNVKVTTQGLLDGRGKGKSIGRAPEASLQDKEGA

The assay has as its target CCR2 (Homo sapiens (Human), UniProt P41597). The experiment in a line: Calcium activity assayed on the FLIPR Tetra in HEK-Gqi5 cells stably expressing CCR2. The conditions noted are these: FLIPR Tetra calcium assay. Type of assay: cell-based. Here is the method:
HEK-Gqi5 cells stably expressing CCR2 were cultured in (DMEM high glucose, 10% FBS, 1% PSA, 400 μg/ml geneticin and 50 μg/ml hygromycin. Appropriate positive control chemokines (MCP-1, MIP1A or RANTES) was used as the positive control agonist for screening compound-induced calcium activity assayed on the FLIPR^Tetra. The drug plates were prepared in 384-well microplates using the EP3 and the MuItiPROBE robotic liquid handling systems. Compounds were synthesized and tested for CCR^2 activity.
Broadly, the pIC50 is −log10 of the IC50, conventionally taken in molar units. Consider `CCS(=O)(=O)c1ccc(Cl)cc1NS(=O)(=O)c1ccc(Cl)c(C(F)(F)F)c1` [4-chloro-N-[5-chloro-2-(ethylsulfonyl)phenyl]-3-(trifluoromethyl)benzenesulfonamide], for which the “CCR2 % ANTAGONISM” value came out at 90% and the pIC50 was 7.06. For `Nc1cccc(CS(=O)(=O)c2ccc(Cl)cc2NS(=O)(=O)c2ccc(F)cc2F)c1` [N-{2-[(3-aminobenzyl)sulfonyl]-5-chlorophenyl}-2,4-difluorobenzenesulfonamide], in that order: 89% and 6.14. Regarding `CS(=O)(=O)c1ccc(Cl)cc1NS(=O)(=O)c1cc2ccccc2o1` [N-[5-chloro-2-(methylsulfonyl)phenyl]-1-benzofuran-2-sulfonamide], the “CCR2 % ANTAGONISM” value is 93% and the pIC50 is 7.38. On to `O=S(=O)(CCc1ccccn1)c1ccc(Cl)cc1NS(=O)(=O)c1cc2ccccc2o1` [N-{5-chloro-2-[(2-pyridin-2-ylethyl)sulfonyl]phenyl}-1-benzofuran-2-sulfonamide], for which the “CCR2 % ANTAGONISM” value amounted to 93% and the pIC50 is 6.71. `CS(=O)(=O)c1ccc(Cl)cc1NS(=O)(=O)c1ccc(C(F)(F)F)c([N+](=O)[O-])c1` [N-[5-chloro-2-(methylsulfonyl)phenyl]-3-nitro-4-(trifluoromethyl)benzenesulfonamide]: the “CCR2 % ANTAGONISM” value is listed as 97% and the pIC50 is 6.67. On the same counts, the results for `Nc1cccc(CSc2ccc(Cl)cc2NS(=O)(=O)c2cc3ccccc3o2)n1` [N-(2-{[(6-aminopyridin-2-yl)methyl]thio}-5-chlorophenyl)-1-benzofuran-2-sulfonamide] are 94% and 7.49. `O=S(=O)(Nc1cc(Cl)ccc1[S+]([O-])Cc1c[nH]cn1)c1ccc(Cl)c(C(F)(F)F)c1` (stereo not drawn) [4-chloro-N-{5-chloro-2-[(1H-imidazol-4-ylmethyl)sulfinyl]phenyl}-3-(trifluoromethyl)benzenesulfonamide]: the “CCR2 % ANTAGONISM” value was found to be 111% and the pIC50 is 6.80.

Consider `CSc1ccc(Cl)cc1NS(=O)(=O)c1ccc(C)c([N+](=O)[O-])c1` [N-[5-chloro-2-(methylthio)phenyl]-4-methyl-3-nitrobenzenesulfonamide], for which the “CCR2 % ANTAGONISM” value is recorded as 92% and the negative-log IC50 (pIC50) was 6.17. Regarding `O=S(=O)(Nc1cc(Cl)ccc1SCc1cc[nH]n1)c1cc2ccccc2o1` [N-{5-chloro-2-[(1H-pyrazol-3-ylmethyl)thio]phenyl}-1-benzofuran-2-sulfonamide], the “CCR2 % ANTAGONISM” value came out at 99% and the pIC50 was 7.80. As to `Nc1cccc(CSc2ccc(Cl)cc2NS(=O)(=O)c2ccc(F)cc2F)c1` [N-{2-[(3-aminobenzyl)thio]-5-chlorophenyl}-2,4-difluorobenzenesulfonamide], the “CCR2 % ANTAGONISM” value was found to be 64% and the pIC50 was 5.49.

Take `O=S(=O)(Nc1cc(Cl)ccc1SCc1cccnc1)c1ccc(Cl)c(C(F)(F)F)c1` [4-chloro-N-{5-chloro-2-[(pyridin-3-ylmethyl)thio]phenyl}-3-(trifluoromethyl)benzenesulfonamide]: the “CCR2 % ANTAGONISM” value is 85% and the pIC50 was 7.03. For the molecule `O=S(=O)(Cc1ccccn1)c1ccc(Cl)cc1NS(=O)(=O)c1cc2ccccc2o1` [N-{5-chloro-2-[(pyridin-2-ylmethyl)sulfonyl]phenyl}-1-benzofuran-2-sulfonamide], the “CCR2 % ANTAGONISM” value came to 100% and the pIC50 is 7.54.

For the molecule `O=S(=O)(Cc1cccnc1)c1ccc(Cl)cc1NS(=O)(=O)c1cc2ccccc2o1` [N-{5-chloro-2-[(pyridin-3-ylmethyl)sulfonyl]phenyl}-1-benzofuran-2-sulfonamide], the “CCR2 % ANTAGONISM” value came to 93% and the negative logarithm of the IC50 (pIC50) is 7.49. On to `O=S(=O)(Nc1cc(Cl)ccc1[S+]([O-])C(F)(F)F)c1cc2ccccc2o1` (stereo not drawn) [N-{5-chloro-2-[(trifluoromethyl)sulfinyl]phenyl}-1-benzofuran-2-sulfonamide], for which the “CCR2 % ANTAGONISM” value was determined as 89% and the pIC50 was 7.72. For `CSc1ccc(Cl)cc1NS(=O)(=O)c1ccc(I)cc1` [N-[5-chloro-2-(methylthio)phenyl]-4-iodobenzenesulfonamide], in that order: 71% and 5.69.

In the case of `O=c1[nH]cc(CS(=O)(=O)c2ccc(Cl)cc2NS(=O)(=O)c2cc3ccccc3o2)c(=O)[nH]1` [N-(5-chloro-2-{[(2,4-dioxo-1,2,3,4-tetrahydropyrimidin-5-yl)methyl]sulfonyl}phenyl)-1-benzofuran-2-sulfonamide], the “CCR2 % ANTAGONISM” value worked out at 0%. For `CCCn1cnc(CS(=O)(=O)c2ccc(Cl)cc2NS(=O)(=O)c2cc3ccccc3o2)c1` [N-(5-chloro-2-{[(1-propyl-1H-imidazol-4-yl)methyl]sulfonyl}phenyl)-1-benzofuran-2-sulfonamide], the “CCR2 % ANTAGONISM” value amounted to 98% and the negative-log IC50 (pIC50) was 6.09. On the same counts, the results for `CN(C)C(=O)CCSc1ccc(Cl)cc1NS(=O)(=O)c1ccc(Cl)c(C(F)(F)F)c1` [3-{[4-chloro-2-({[4-chloro-3-(trifluoromethyl)phenyl]sulfonyl}amino)phenyl]thio}-N,N-dimethylpropanamide] are 80% and 6.30. As for `CN(C)CCCSc1ccc(Cl)cc1NS(=O)(=O)c1cc2ccccc2o1` [N-(5-chloro-2-{[3-(dimethylamino)propyl]thio}phenyl)-1-benzofuran-2-sulfonamide], the “CCR2 % ANTAGONISM” value worked out at 106% and the negative logarithm of the IC50 (pIC50) was 5.69. Consider `CC(C)(C)OC(=O)Nc1cc(CS(=O)(=O)c2ccc(Cl)cc2NS(=O)(=O)c2cc3ccccc3o2)ccn1` [tert-butyl {4-[({2-[(1-benzofuran-2-ylsulfonyl)amino]-4-chlorophenyl}sulfonyl)methyl]pyridin-2-yl}carbamate], for which the “CCR2 % ANTAGONISM” value is given as 76% and the negative logarithm of the IC50 (pIC50) was 5.65. In the case of `O=S(=O)(Nc1cc(Cl)ccc1[S+]([O-])CCc1cn[nH]c1)c1cc2ccccc2o1` (stereo not drawn) [N-(5-chloro-2-{[2-(1H-pyrazol-4-yl)ethyl]sulfinyl}phenyl)-1-benzofuran-2-sulfonamide], the “CCR2 % ANTAGONISM” value amounted to 67% and the pIC50 is 5.97. For the molecule `O=S(=O)(Nc1cc(Cl)ccc1[S+]([O-])Cc1cccnc1)c1ccc(Cl)c(C(F)(F)F)c1` (stereo not drawn) [4-chloro-N-{5-chloro-2-[(pyridin-3-ylmethyl)sulfinyl]phenyl}-3-(trifluoromethyl)benzenesulfonamide], the “CCR2 % ANTAGONISM” value is 97% and the negative-log IC50 (pIC50) is 6.95. On the same counts, the results for `O=S(=O)(Nc1cc(Cl)ccc1S(=O)(=O)C1CCC(O)C1)c1ccc(Cl)c(C(F)(F)F)c1` (stereo not drawn) [4-chloro-N-{5-chloro-2-[(3-hydroxycyclopentyl)sulfonyl]phenyl}-3-(trifluoromethyl)benzenesulfonamide] are 97% and 7.12. For `NC(=O)NCCSc1ccc(Cl)cc1NS(=O)(=O)c1cc2ccccc2o1` [N-[2-({2-[(aminocarbonyl)amino]ethyl}thio)-5-chlorophenyl]-1-benzofuran-2-sulfonamide], in that order: 103% and 7.10. On the same counts, the results for `CCCn1cnc(C[S+]([O-])c2ccc(Cl)cc2NS(=O)(=O)c2cc3ccccc3o2)c1` (stereo not drawn) [N-(5-chloro-2-{[(1-propyl-1H-imidazol-4-yl)methyl]sulfinyl}phenyl)-1-benzofuran-2-sulfonamide] are 93% and 6.09. As to `O=S(=O)(Cc1c[nH]cn1)c1ccc(Cl)cc1NS(=O)(=O)c1ccc(Cl)c(C(F)(F)F)c1` [4-chloro-N-{5-chloro-2-[(1H-imidazol-4-ylmethyl)sulfonyl]phenyl}-3-(trifluoromethyl)benzenesulfonamide], the “CCR2 % ANTAGONISM” value is listed as 108% and the pIC50 was 7.29. In the case of `CC(C)c1ccc(S(=O)(=O)Nc2cc(Cl)ccc2S(C)(=O)=O)cc1` [N-[5-chloro-2-(methylsulfonyl)phenyl]-4-isopropylbenzenesulfonamide], the “CCR2 % ANTAGONISM” value amounted to 0%. Take `O=S(=O)(Cc1cccnc1F)c1ccc(Cl)cc1NS(=O)(=O)c1cc2ccccc2o1` [N-(5-chloro-2-{[(2-fluoropyridin-3-yl)methyl]sulfonyl}phenyl)-1-benzofuran-2-sulfonamide]: the “CCR2 % ANTAGONISM” value is reported as 88% and the pIC50 is 7.10. `C[S+]([O-])c1ccc(Cl)cc1NS(=O)(=O)c1ccco1` (stereo not drawn) [N-[5-chloro-2-(methylsulfinyl)phenyl]furan-2-sulfonamide]: the “CCR2 % ANTAGONISM” value is listed as 96% and the negative logarithm of the IC50 (pIC50) is 5.63. For `O=S(=O)(Nc1cc(Cl)ccc1SCCO)c1ccc(Cl)c(C(F)(F)F)c1` [4-chloro-N-{5-chloro-2-[(2-hydroxyethyl)thio]phenyl}-3-(trifluoromethyl)benzenesulfonamide], in that order: 88% and 6.82. For `CC[S+]([O-])c1ccc(Cl)cc1NS(=O)(=O)c1ccc(Cl)c(C(F)(F)F)c1` (stereo not drawn) [4-chloro-N-[5-chloro-2-(ethylsulfinyl)phenyl]-3-(trifluoromethyl)benzenesulfonamide], the “CCR2 % ANTAGONISM” value came out at 78% and the negative-log IC50 (pIC50) is 7.30. As to `CS(=O)(=O)c1ccc(Cl)cc1NS(=O)(=O)c1ccc(Br)cc1` [4-bromo-N-[5-chloro-2-(methylsulfonyl)phenyl]benzenesulfonamide], the “CCR2 % ANTAGONISM” value was 84% and the pIC50 was 6.39. In the case of `Nc1cccc(C[S+]([O-])c2ccc(Cl)cc2NS(=O)(=O)c2cc3ccccc3o2)n1` (stereo not drawn) [N-(2-{[(6-aminopyridin-2-yl)methyl]sulfinyl}-5-chlorophenyl)-1-benzofuran-2-sulfonamide], the “CCR2 % ANTAGONISM” value was 99% and the pIC50 is 7.55.

For the molecule `Nc1cccc(CS(=O)(=O)c2ccc(Cl)cc2NS(=O)(=O)c2cccc(Cl)c2)c1` [N-{2-[(3-aminobenzypsulfonyl]-5-chlorophenyl}-3-chlorobenzenesulfonamide], the “CCR2 % ANTAGONISM” value worked out at 91% and the negative logarithm of the IC50 (pIC50) was 6.61.

Source of the values: patent publication US9663460B2, “Sulfur derivatives as chemokine receptor modulators” (ALLERGAN, INC., priority 2010, dated 2017).
